Results from the supplement of paper PMC11451515.

System: P12-Ichikawa
Assay: cell viability relative to DMSO control; higher = less cytotoxic
Details: 48 h
In short: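 Viability values are per-plate percentages of DMSO wells, with background from cell-free wells. Library compounds in DMSO were pin-dosed, in an 11-point threefold series from 47 μM to 0.79 nM, onto NOMO1 or SEM (500 cells/well) or P12-Ichikawa (1000 cells/well) leukemia cells in 1536-well plates (5 μl). Those cells had been adapted for at least four passages in each medium, and CellTiter-Glo One luminescence was read after 48 h at 37°C.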

[1] = HPLM + 10% dialyzed FBS, 0.000781 µM
[2] = HPLM + 10% dialyzed FBS, 0.00234 µM
[3] = HPLM + 10% dialyzed FBS, 0.00702 µM
[4] = HPLM + 10% dialyzed FBS, 0.0211 µM
[5] = HPLM + 10% dialyzed FBS, 0.0632 µM
[6] = HPLM + 10% dialyzed FBS, 0.19 µM
[7] = HPLM + 10% dialyzed FBS, 0.569 µM
[8] = HPLM + 10% dialyzed FBS, 1.71 µM
[9] = HPLM + 10% dialyzed FBS, 5.12 µM
[10] = HPLM + 10% dialyzed FBS, 15.4 µM
[11] = HPLM + 10% dialyzed FBS, 46.1 µM
[12] = RPMI 5 mM glucose + 10% FBS, 0.000781 µM
[13] = RPMI 5 mM glucose + 10% FBS, 0.00234 µM
[14] = RPMI 5 mM glucose + 10% FBS, 0.00702 µM
[15] = RPMI 5 mM glucose + 10% FBS, 0.0211 µM
[16] = RPMI 5 mM glucose + 10% FBS, 0.0632 µM
[17] = RPMI 5 mM glucose + 10% FBS, 0.19 µM
[18] = RPMI 5 mM glucose + 10% FBS, 0.569 µM
[19] = RPMI 5 mM glucose + 10% FBS, 1.71 µM
[20] = RPMI 5 mM glucose + 10% FBS, 5.12 µM
[21] = RPMI 5 mM glucose + 10% FBS, 15.4 µM
[22] = RPMI 5 mM glucose + 10% FBS, 46.1 µM
[23] = RPMI 5 mM glucose + 10% dialyzed FBS, 0.000781 µM
[24] = RPMI 5 mM glucose + 10% dialyzed FBS, 0.00234 µM
[25] = RPMI 5 mM glucose + 10% dialyzed FBS, 0.00702 µM
[26] = RPMI 5 mM glucose + 10% dialyzed FBS, 0.0211 µM
[27] = RPMI 5 mM glucose + 10% dialyzed FBS, 0.0632 µM
[28] = RPMI 5 mM glucose + 10% dialyzed FBS, 0.19 µM
[29] = RPMI 5 mM glucose + 10% dialyzed FBS, 0.569 µM
[30] = RPMI 5 mM glucose + 10% dialyzed FBS, 1.71 µM
[31] = RPMI 5 mM glucose + 10% dialyzed FBS, 5.12 µM
[32] = RPMI 5 mM glucose + 10% dialyzed FBS, 15.4 µM
[33] = RPMI 5 mM glucose + 10% dialyzed FBS, 46.1 µM

Row | SMILES | cell viability [1] | cell viability [2] | cell viability [3] | cell viability [4] | cell viability [5] | cell viability [6] | cell viability [7] | cell viability [8] | cell viability [9] | cell viability [10] | cell viability [11] | cell viability [12] | cell viability [13] | cell viability [14] | cell viability [15] | cell viability [16] | cell viability [17] | cell viability [18] | cell viability [19] | cell viability [20] | cell viability [21] | cell viability [22] | cell viability [23] | cell viability [24] | cell viability [25] | cell viability [26] | cell viability [27] | cell viability [28] | cell viability [29] | cell viability [30] | cell viability [31] | cell viability [32] | cell viability [33]
1 | CCOC(=O)/C=C/[C@H](C[C@@H]1CCNC1=O)NC(=O)[C@@H](CC(=O)[C@@H](NC(=O)c1cc(C)on1)C(C)C)Cc1ccc(F)cc1 | 122% | 115% | 121% | 87.7% | 130% | 127% | 126% | 117% | 121% | 122% | 117% | 114% | 122% | 130% | 76.8% | 135% | 135% | 134% | 136% | 121% | 120% | 119% | 112% | 106% | 118% | 80.2% | 111% | 119% | 115% | 128% | 119% | 124% | 118%
2 | CC(C)C[C@H](NC(=O)[C@@H](O)[C@H](N)Cc1ccccc1)C(=O)O | – | – | – | – | – | – | – | – | – | – | – | – | – | – | – | – | – | – | – | – | – | – | 116% | 130% | 124% | 130% | 130% | 111% | 120% | 115% | 123% | 104% | 32%
3 | C[S+](=O)([O-])c1ccc(Oc2cc(F)cc(C#N)c2)c2c1[C@H](O)C(F)(F)C2 | 92.8% | 96.9% | 102% | 100% | 102% | 107% | 103% | 104% | 110% | 109% | 96.3% | 91.5% | 100% | 103% | 117% | 108% | 107% | 112% | 105% | 105% | 106% | 97.8% | 92.6% | 105% | 108% | 110% | 115% | 110% | 104% | 110% | 110% | 104% | 106%
4 | CC(C)(O)c1cc2nc(-c3cnc(N)nc3)nc(N3CCOCC3)c2s1 | 120% | 121% | 122% | 125% | 118% | 111% | 108% | 86.2% | 74.1% | 72.6% | 70% | 117% | 127% | 121% | 112% | 114% | 103% | 81.8% | 66.5% | 61% | 49.4% | 48.8% | – | – | – | – | – | – | – | – | – | – | –
5 | CCOc1ccc(Cc2cc([C@@H]3O[C@H](CO)[C@@H](O)[C@H](O)[C@H]3O)ccc2Cl)cc1 | 123% | 124% | 120% | 84.8% | 125% | 134% | 129% | 123% | 127% | 126% | 123% | – | – | – | – | – | – | – | – | – | – | – | – | – | – | – | – | – | – | – | – | – | –
6 | CN1CCN(CCCN2c3ccccc3Sc3ccc(C(F)(F)F)cc32)CC1 | 100% | 105% | 105% | 108% | 106% | 111% | 117% | 119% | 111% | 42% | 12.4% | 101% | 108% | 109% | 109% | 119% | 119% | 113% | 116% | 112% | 34.1% | 13.8% | 94.8% | 105% | 99.6% | 104% | 106% | 105% | 112% | 123% | 115% | 93.8% | 39.4%
7 | CN1CCN(C(=O)O[C@H]2c3nccnc3C(=O)N2c2ccc(Cl)cn2)CC1 | 112% | 108% | 105% | 111% | 104% | 110% | 103% | 108% | 101% | 98.2% | 99.9% | 96.8% | 102% | 106% | 106% | 101% | 106% | 103% | 95.5% | 93% | 95.1% | 88% | 98.6% | 102% | 98.9% | 105% | 92.9% | 102% | 101% | 99.1% | 102% | 93.6% | 85.1%
8 | CN1CCN(CCOc2cc(OC3CCOCC3)c3c(Nc4c(Cl)ccc5c4OCO5)ncnc3c2)CC1 | 121% | 125% | 130% | 134% | 130% | 128% | 136% | 124% | 101% | 32.3% | 20% | – | – | – | – | – | – | – | – | – | – | – | – | – | – | – | – | – | – | – | – | – | –
9 | C=CCc1ccc(O)c(-c2ccc(O)c(CC=C)c2)c1 | 112% | 113% | – | 113% | 119% | 28.9% | 13.7% | – | 9.66% | 11.3% | 18.2% | 109% | 110% | 110% | 113% | 120% | 120% | 118% | 17.5% | 14.9% | 13.7% | 11% | 105% | 116% | 113% | 115% | 122% | 113% | 63.9% | 25.6% | 18.4% | 21.3% | 21.2%
10 | COc1cccc2c1CCCC2CCCN1CCN(C2CCCCC2)CC1 (stereo unspecified) | 104% | 110% | 97.7% | 112% | 106% | 113% | 111% | 110% | 109% | 103% | 81.5% | 111% | 99.9% | 117% | 114% | 127% | 119% | 116% | 122% | 114% | 99.5% | 62.9% | 95.7% | 102% | 114% | 111% | 116% | 110% | 111% | 103% | 105% | 93.4% | 66.2%
